# Measured values from ChEMBL document CHEMBL5214908, “Small Scorpion-like Peptidomimetics: Potential Broad-Spectrum Membrane Active Antimicrobials without Detectable Resistance” (J Med Chem, 2021).
# Assays:
# [1] = Hemolytic activity in human RBC; type: toxicity, cell-based, Erythrocyte; settings: human red blood cells (erythrocytes)
# [2] = tested on: Staphylococcus aureus; experiment: Antibacterial activity against methicillin-resistant Staphylococcus aureus assessed as reduction in bacterial growth; type: functional
# [3] = tested on: Enterococcus faecium; experiment: Antibacterial activity against vancomycin-resistant Enterococcus faecium assessed as reduction in bacterial growth; type: functional
# [4] = tested on: Klebsiella pneumoniae; experiment: Antibacterial activity against Klebsiella pneumoniae assessed as reduction in bacterial growth; type: functional
# [5] = tested on: Pseudomonas aeruginosa; experiment: Antibacterial activity against Pseudomonas aeruginosa assessed as reduction in bacterial growth; type: functional
# [6] = tested on: Staphylococcus aureus; experiment: In vivo antibacterial activity against methicillin-resistant Staphylococcus aureus infected in murine assessed as log reduction in bacterial burden; type: functional; set-up: scale not given: the % may be the effect or the level left
# [7] = tested on: Staphylococcus epidermidis; experiment: Antibacterial activity against methicillin-resistant Staphylococcus epidermidis assessed as reduction in bacterial growth; type: functional
# [8] = tested on: Escherichia coli; experiment: Antibacterial activity against Escherichia coli assessed as reduction in bacterial growth; type: functional
Compound,HC50 [1] [µg/mL],MIC [2] [mg/L],MIC [3] [mg/L],MIC [4] [mg/L],MIC [5] [mg/L],Activity [6] [%],MIC [7] [mg/L],MIC [8] [mg/L]
CCCCCCCCCNC(=O)[C@H](CCCCN)NC(=O)c1ccc(C(=O)N[C@@H](CCCCN)C(=O)NCCCCCCCCC)cc1,180,0.75,,,,,,
NCCCC[C@H](N)CN(CC(=O)Nc1cc(NC(=O)CN(C[C@@H](N)CCCCN)C(=O)CC23CC4CC(CC(C4)C2)C3)cc(C(=O)NCCNC(=O)CC23CC4CC(CC(C4)C2)C3)c1)C(=O)CC12CC3CC(CC(C3)C1)C2,250,2,2,2,2,99.998,2,2
